The record followed here is patent US20050209278A1, “Piperidinyl- and piperazinyl-sulfonylmethyl hydroxamic acids and their use as protease inhibitors” (priority 2002, published 2005).

Several values for one entry are separate records, joined by “and”; a condition that tells them apart may be missing. Equal entries are not always repeated.

T1 sequence (P14780 107-707 limits assumed): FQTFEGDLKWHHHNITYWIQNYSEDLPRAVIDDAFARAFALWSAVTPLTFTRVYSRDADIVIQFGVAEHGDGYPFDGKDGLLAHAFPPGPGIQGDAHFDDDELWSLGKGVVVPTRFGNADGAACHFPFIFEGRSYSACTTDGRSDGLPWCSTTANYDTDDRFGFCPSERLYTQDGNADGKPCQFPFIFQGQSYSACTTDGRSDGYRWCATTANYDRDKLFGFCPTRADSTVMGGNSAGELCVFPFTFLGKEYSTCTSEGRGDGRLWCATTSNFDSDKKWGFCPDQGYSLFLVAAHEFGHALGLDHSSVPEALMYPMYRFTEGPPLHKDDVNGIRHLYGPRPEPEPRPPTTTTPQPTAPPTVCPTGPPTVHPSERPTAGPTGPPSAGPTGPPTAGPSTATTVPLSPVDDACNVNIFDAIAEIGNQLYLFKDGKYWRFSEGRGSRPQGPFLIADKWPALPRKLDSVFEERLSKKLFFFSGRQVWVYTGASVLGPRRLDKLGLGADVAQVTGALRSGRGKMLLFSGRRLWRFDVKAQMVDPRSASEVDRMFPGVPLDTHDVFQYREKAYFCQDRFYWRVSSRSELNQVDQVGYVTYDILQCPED

This assay has as its target T1, MMP-9 (Homo sapiens, UniProt P14780).
T1 construct: made in house; host or cells: MMP-9-transfected HT1080 cells (spent media)
Kind of assay: In vitro MMP inhibition, Ki determination (fluorogenic substrate II). The class given is biochemical. The note with it: value outside parentheses. The gist of the method: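 HT1080-derived MMP-9, activated with APMA, trypsin or MMP-3, incubated 1 hr at room temperature with inhibitor and 4 μM fluorogenic substrate II (at or below Km) in pH 7.5 Tris/NaCl/CaCl2 buffer; ex 330/em 420 nm. Ki from Morrison-equation regression, without substrate correction.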
Consider `CC(C)c1ccc(-c2cnc(N3CCN(S(=O)(=O)C4(C(=O)NO)CCOCC4)CC3)s2)cc1` [Example 366], for which the Ki was 2.44 nM.

On to `O=C(NO)C1(S(=O)(=O)N2CCC(c3ccc(CCC(F)(F)F)cn3)CC2)CCOCC1` [Example 367], for which the Ki was found to be 0.625 nM. `O=C(NO)C1(S(=O)(=O)N2CCN(c3ncc(-c4ccc(O)cc4)s3)CC2)CCOCC1` [Example 368]: the Ki was determined as 0.423 nM.

Turning to `O=C(NO)C1(S(=O)(=O)N2CCN(c3ncc(-c4ccc(Cl)c(Cl)c4)s3)CC2)CCOCC1` [Example 369], the inhibition constant (Ki) stood at 22.7 nM.

`Cc1cccc(-c2cnc(N3CCN(S(=O)(=O)C4(C(=O)NO)CCOCC4)CC3)s2)c1` [Example 370]: the Ki is 9.1 nM.

For `COc1ccc(-c2cnc(N3CCN(S(=O)(=O)C4(C(=O)NO)CCOCC4)CC3)s2)cc1OC` [Example 371], the Ki turned out to be 6.5 nM. Take `O=C(NO)C1(S(=O)(=O)N2CCN(c3ccc(-c4ccccc4)cn3)CC2)CCOCC1` [Example 372]: the Ki was 0.665 nM and 0.75 nM.

Take `O=C(NO)C1(S(=O)(=O)N2CCC(COCc3ccccc3)CC2)CCOCC1` [Example 373]: the Ki turned out to be 7.65 nM.

For `CCC=C1CCN(S(=O)(=O)C2(C(=O)NO)CCOCC2)CC1` [Example 374], the Ki was 219 nM. The value for `O=C(NO)C1(S(=O)(=O)N2CCC(COCC(F)(F)C(F)F)CC2)CCOCC1` [Example 375] was 105 nM; that for `O=C(NO)C1(S(=O)(=O)N2CCC(COCC(F)(F)C(F)(F)F)CC2)CCOCC1` [Example 376] was 114 nM; that for `O=C(NO)C1(S(=O)(=O)N2CCC(COCC(F)(F)C(F)(F)C(F)(F)F)CC2)CCOCC1` [Example 377] was 174 nM. `O=C(NO)C1(S(=O)(=O)N2CCC(COCC(F)(F)C(F)(F)C(F)(F)C(F)F)CC2)CCOCC1` [Example 378]: the Ki was determined as 219 nM. Consider `CCCCc1ccc(-c2cnc(N3CCN(S(=O)(=O)C4(C(=O)NO)CCOCC4)CC3)s2)cc1` [Example 379], for which the Ki was determined as 3.97 nM. Consider `CCCCCc1ccc(-c2cnc(N3CCN(S(=O)(=O)C4(C(=O)NO)CCOCC4)CC3)s2)cc1` [Example 380], for which the Ki worked out at 16.2 nM.

For the compound `CCc1ccc(-c2cnc(N3CCN(S(=O)(=O)C4(C(=O)NO)CCOCC4)CC3)s2)cc1` [Example 381], the Ki worked out at 1.03 nM. Under `O=C(NO)C1(S(=O)(=O)N2CCN(c3ncc(-c4cccnc4)s3)CC2)CCOCC1` [Example 382] stands 4.26 nM; under `NC(=O)c1ccccc1-c1cnc(N2CCN(S(=O)(=O)C3(C(=O)NO)CCOCC3)CC2)s1` [Example 383], 9520 nM; under `N#Cc1cccc(-c2cnc(N3CCN(S(=O)(=O)C4(C(=O)NO)CCOCC4)CC3)s2)c1` [Example 384], 6.4 nM.

For the compound `O=C(NO)C1(S(=O)(=O)N2CCC(c3ccc(OCC(F)(F)C(F)F)cc3)CC2)CCN(CCN2CCOCC2)CC1` [Example 385], the Ki came to 0.829 nM. Regarding `O=C(NO)C1(S(=O)(=O)N2CCN(c3ccc(CCCC(F)(F)F)cc3F)CC2)CCOCC1` [Example 386], the Ki amounted to 4.9 nM. In the case of `O=C(NO)C1(S(=O)(=O)N2CCN(c3ncc(-c4ccccn4)s3)CC2)CCOCC1` [Example 387], the Ki came to 34.6 nM. For `CCCCc1ccc(C2CCN(S(=O)(=O)C3(C(=O)NO)CCNCC3)CC2)nc1` [Example 388], the Ki was determined as 2.3 nM. As for `O=C(NO)C1(S(=O)(=O)N2CCN(c3ccc(CCCC(F)(F)F)c(F)c3)CC2)CCOCC1` [Example 389], the Ki is 1.34 nM. In the case of `O=C(NO)C1(S(=O)(=O)N2CCC(c3ccc(-c4cccnc4)cn3)CC2)CCOCC1` [Example 390], the Ki is 53.2 nM. `O=C(NO)C1(S(=O)(=O)N2CCC(c3ccc(-c4ccccc4)cn3)CC2)CCOCC1` [Example 392]: the Ki stood at 2.33 nM. Under `O=C(NO)C1(S(=O)(=O)N2CCC(c3ccc(-c4cccs4)cn3)CC2)CCOCC1` [Example 394] stands 1.52 nM; under `O=C(NO)C1(S(=O)(=O)N2CCC(c3ccc(-c4ccc(C(F)(F)F)cc4)cn3)CC2)CCOCC1` [Example 395], 29.4 nM; under `CCCCc1ccc(C2CCN(S(=O)(=O)C3(C(=O)NO)CCN(CC)CC3)CC2)nc1` [Example 396], 0.39 nM.
